This passage reports MIC results from patent US3974140A, “Ureidoacetamido-penicillins” (Bayer Aktiengesellschaft, priority 1970, dated 1976).

A value given as a limit tells only on which side of the number the result lay.

Experiment in all cases: MIC, liquid medium test tube series dilution test
One experiment deals with Proteus vulg. 3400. Type of experiment: cell-based, Proteus vulgaris. The note with it: Proteus vulg. 3400, 24 hours, 37°C. On the procedure: (§1) The chemotherapeutic activity of the new penicillins was tested in vivo and in vitro. The in vitro inhibition values (MIC = minimum inhibition concentration (see Tables 1 and 2) were determined in a liquid medium in the test tube series dilution test, with readings being taken after 24 hours' incubation at 37°C. The MIC is indicated by the non-turbid test tube in the dilution series. A complete medium of the following composition was used as the nutrient medium:
(§2) The figures quoted in the Examples for the effectiveness against certain bacteria (units/ml) are minimum inhibitory concentrations in the test tube series dilution test after 24 hours' incubation.

In a further experiment the test system is Klebsiella 63. It is filed as cell-based. The note with it: Klebsiella 63, 24 hours, 37°C. How it is done: as §1, §2
The next experiment relates to E. coli C 165. It is filed as cell-based. The note with it: E. coli C 165, 24 hours, 37°C. On the procedure: as §1, §2
A further experiment deals with E. coli A 261. Type of experiment: cell-based. The note with it: E. coli A 261, 24 hours, 37°C. On the procedure:
as §1, §2

Experiment [1] concerns Streptoc. faec. ATCC 9790. It is filed as cell-based. Particulars: Strep. faec. (Enterococcus) ATCC 9790, 24 hours, 37°C. On the procedure: as §1, §2
The next experiment concerns Staph. aureus 133. It is filed as cell-based, Staphylococcus aureus. The note with it: Staph. aureus 133, 24 hours, 37°C. On the procedure: as §1, §2
The test system of a further experiment is Psdm. aerug. Walter. Type of experiment: cell-based, Pseudomonas aerug. The note with it: 24 hours, 37°C. How it is done: as §1, §2
A further experiment has as its system Proteus vulg. 1017. Type of experiment: cell-based, Proteus vulgaris. Particulars: Proteus vulg. 1017, 24 hours, 37°C. How it is done:
as §1, §2

For another experiment, the system named is E. coli 183/58. Type of experiment: cell-based. The note with it: E. coli 183/58, 24 hours, 37°C. On the procedure: as §1, §2

On to `C=CCN(C(=O)NC(C(=O)N[C@@H]1C(=O)N2[C@@H]1SC(C)(C)[C@@H]2C(=O)O)c1cccs1)C(=O)c1ccccc1` (stereo partly drawn) [Example 21, Sodium D,L-α-(3-benzoyl-3-allyl-ureido)-2-thienylmethylpenicillin], for which the MIC with Proteus vulg. 3400 is 20-100 units/ml; in the experiment on Klebsiella 63, 20-100 units/ml; in the experiment with E. coli C 165 it was 20-100 units/ml; in the experiment on E. coli A 261, greater than 500 units/ml; in experiment [1], 100-500 units/ml; against Staph. aureus 133, less than 0.8 units/ml. Further, the MIC in the experiment with Psdm. aerug. Walter was 100-500 units/ml.
Consider `CN(C)C(=O)N(C)C(=O)NC(C(=O)N[C@@H]1C(=O)N2[C@@H]1SC(C)(C)[C@@H]2C(=O)O)c1cccs1` (stereo partly drawn) [Example 23, Sodium D,L-α-(3-dimethylaminocarbonyl-3-methyl-ureido)-2-thienylmethylpenicillin], for which the MIC in the experiment with Proteus vulg. 3400 is on record as greater than 500 units/ml; in the experiment on Klebsiella 63, greater than 500 units/ml; against E. coli C 165 it was 100-500 units/ml; against E. coli A 261, greater than 500 units/ml; in experiment [1] it was 100-500 units/ml; against Staph. aureus 133, 0.8-4 units/ml. This molecule showed an MIC against Psdm. aerug. Walter greater than 500 units/ml.
As for `CSc1ccc(C(NC(=O)N(C)C(=O)c2ccccc2)C(=O)N[C@@H]2C(=O)N3[C@@H]2SC(C)(C)[C@@H]3C(=O)O)cc1` (stereo partly drawn) [Example 33, Sodium α-(3-benzoyl-3-methyl-ureido)-4-methylthiobenzylpenicillin], the MIC is reported as 4-20 units/ml against Proteus vulg. 1017; 4-20 units/ml in the experiment with Klebsiella 63; 4-20 units/ml against E. coli C 165; 100-500 units/ml in the experiment with E. coli A 261; 20-100 units/ml in [1]; less than 0.8 units/ml in the experiment on Staph. aureus 133. Moreover, the MIC against Psdm. aerug. Walter is 4-20 units/ml.
Turning to `CN(C(=O)CCCl)C(=O)NC(C(=O)N[C@@H]1C(=O)N2[C@@H]1SC(C)(C)[C@@H]2C(=O)O)C1CC=CCC1` (stereo partly drawn) [Example 36, Sodium α-(3-β-chloropropionyl-3-methyl-ureido)-cyclohex-3-enylmethylpenicillin], the MIC in the experiment with Proteus vulg. 1017 is on record as greater than 500 units/ml; in the experiment with Klebsiella 63, greater than 500 units/ml; against E. coli C 165, 100-500 units/ml; against E. coli A 261, greater than 500 units/ml; in [1], 100-500 units/ml; with Staph. aureus 133, 4-20 units/ml. The same molecule registered an MIC in the experiment with Psdm. aerug. Walter greater than 500 units/ml.
On to `CC1(C)S[C@@H]2[C@H](NC(=O)[C@H](NC(=O)N(C(=O)c3ccccc3)c3ccccc3)c3ccccc3)C(=O)N2[C@H]1C(=O)O` [Example 99 B, Sodium D(-)-α-(3-benzoyl-3-phenyl-ureido)-benzylpenicillin], for which the MIC with Proteus vulg. 1017 is reported as roughly 500 units/ml; against Klebsiella 63, greater than 500 units/ml; against E. coli C 165, 20-100 units/ml; in the experiment with E. coli A 261 it was greater than 500 units/ml; in experiment [1], 100-500 units/ml; against Staph. aureus 133, less than 0.8 units/ml. Besides, the MIC against Psdm. aerug. Walter is on record as 100-500 units/ml.
On to `CN(C(=O)CCCCl)C(=O)NC(C(=O)N[C@@H]1C(=O)N2[C@@H]1SC(C)(C)[C@@H]2C(=O)O)c1cccs1` (stereo partly drawn) [Example 5, Sodium D,L-(3-γ-chlorobutyryl-3-methyl-ureido)-(2-thienyl)methylpenicillin], for which the MIC against Proteus vulg. 3400 is given as 20-100 units/ml; against Klebsiella 63 it was 20-100 units/ml; in the experiment with E. coli C 165, 4-20 units/ml; with E. coli A 261, 100-500 units/ml; in experiment [1], 100-500 units/ml; in the experiment on Staph. aureus 133 it was less than 0.8 units/ml. The MIC against Psdm. aerug. Walter is reported as 20-100 units/ml.
In the experiment on Staph. aureus 133, `CC(=O)N(Cc1ccccc1)C(=O)N[C@@H](C(=O)N[C@@H]1C(=O)N2[C@@H]1SC(C)(C)[C@@H]2C(=O)O)c1ccccc1` [Example 87] returned an MIC of less than 0.8 units/ml.
As to `Cc1noc(C)c1C(=O)N(C)C(=O)N[C@@H](C(=O)N[C@@H]1C(=O)N2[C@@H]1SC(C)(C)[C@@H]2C(=O)O)c1ccccc1` [Example 76], the MIC with E. coli 183/58 is ~ 4 units/ml; with Staph. aureus 133 it was less than 0.8 units/ml.
As for `CCCN(C(=O)N[C@@H](C(=O)N[C@@H]1C(=O)N2[C@@H]1SC(C)(C)[C@@H]2C(=O)O)c1ccccc1)C(=O)c1ccco1` [Example 92 B, Sodium D (-)-α-(3-[2-furoyl]-3-n-propyl-ureido)-benzylpenicillin], the MIC with E. coli A 261 is recorded as greater than 500 units/ml; against Staph. aureus 133, less than 0.8 units/ml.
As for `COC(=O)N(C)C(=O)NC(C(=O)N[C@@H]1C(=O)N2[C@@H]1SC(C)(C)[C@@H]2C(=O)O)c1cccs1` (stereo partly drawn) [Example 20, Sodium D,L-α-(3-methoxycarbonyl-3-methyl-ureido)-2-thienylmethylpenicillin], the MIC is 100-500 units/ml with Proteus vulg. 3400; 20-100 units/ml in the experiment on Klebsiella 63; 20-100 units/ml with E. coli C 165; greater than 500 units/ml against E. coli A 261; 20-100 units/ml in experiment [1]; less than 0.8 units/ml against Staph. aureus 133. The MIC against Psdm. aerug. Walter is recorded as 100-500 units/ml.
On to `CCCN(C(=O)N[C@@H](C(=O)N[C@@H]1C(=O)N2[C@@H]1SC(C)(C)[C@@H]2C(=O)O)c1ccccc1)C(=O)c1ccc(OC)c([N+](=O)[O-])c1` [Example 109, Sodium D(-)-α-(3-[3-nitro-4-methoxybenzoyl]-3-n-propyl-uredio)-benzylpenicillin], for which the MIC in the experiment on Proteus vulg. 1017 was 20-100 units/ml; with Klebsiella 63 it was 100-500 units/ml; in the experiment on E. coli C 165, 4-20 units/ml; in the experiment with E. coli A 261, greater than 500 units/ml; in [1] it was 4-20 units/ml; in the experiment with Staph. aureus 133, 0.8 units/ml. In addition, the MIC against Psdm. aerug. Walter is recorded as 50-100 units/ml.
Take `CN(C(=O)NC(C(=O)N[C@@H]1C(=O)N2[C@@H]1SC(C)(C)[C@@H]2C(=O)O)c1cccs1)C(=O)c1ccco1` (stereo partly drawn) [Example 22, Sodium D,L-α-(3-[2-furoyl]-3-methyl-ureido)-2-thienylmethylpenicillin]: the MIC in the experiment on Proteus vulg. 3400 is given as 4-20 units/ml; against Klebsiella 63, 20-100 units/ml; in the experiment with E. coli C 165, 4-20 units/ml; in the experiment on E. coli A 261, greater than 500 units/ml; in experiment [1] it was ~ 20 units/ml; in the experiment on Staph. aureus 133 it was less than 0.8 units/ml. For the same molecule, in the experiment on Psdm. aerug. Walter, the MIC is listed as 20-100 units/ml.
For the molecule `CC1(C)S[C@@H]2[C@H](NC(=O)[C@H](NC(=O)N3CCCC3=O)c3ccccc3)C(=O)N2[C@H]1C(=O)O` [Example 102, Sodium D(-)-β-(pyrrolid-2-on-1-yl-carbonylamino)-benzylpenicillin], the MIC in the experiment on E. coli A 261 is greater than 500 units/ml; against Staph. aureus 133, less than 0.8 units/ml.
Take `CN(C(=O)N[C@@H](C(=O)N[C@@H]1C(=O)N2[C@@H]1SC(C)(C)[C@@H]2C(=O)O)c1ccccc1)C(=O)c1ccco1` [Example 91, Sodium D(-)-α-(3-[2-furoyl]-3-methyl-ureido)-benzylpenicillin]: the MIC in the experiment on Staph. aureus 133 was less than 0.8 units/ml.
With `CCN(C(=O)N[C@@H](C(=O)N[C@@H]1C(=O)N2[C@@H]1SC(C)(C)[C@@H]2C(=O)O)c1ccccc1)C(=O)c1ccco1` [Example 93 B, Sodium D(-)-α-(3-[2-furoyl]-3-ethyl-ureido)-benzylpenicillin], the values for the MIC against E. coli A 261 and against Staph. aureus 133 were greater than 500 units/ml and less than 0.8 units/ml, respectively.
As to `CC1(C)S[C@@H]2[C@H](NC(=O)[C@H](NC(=O)N3CCCCCC3=O)c3ccccc3)C(=O)N2[C@H]1C(=O)O` [Example 101 B, Sodium D(-)-α-(hexahydroazepin-2-on-1-yl-carbonyl-amino)-benzylpenicillin], the MIC in the experiment with Proteus vulg. 1017 was 100-500 units/ml; against Klebsiella 63, 100-500 units/ml; in the experiment with E. coli C 165 it was 20-100 units/ml; with E. coli A 261 it was greater than 500 units/ml; in [1] it was roughly 20 units/ml; in the experiment with Staph. aureus 133, less than 0.8 units/ml. Also, the MIC against Psdm. aerug. Walter was 100-500 units/ml.
For the molecule “Sodium D(-)-α-(3-[2-furoyl]-3-phenyl-ureido)-benzylpenicillin [Example 105 B]”, the MIC is listed as greater than 500 units/ml against Proteus vulg. 1017; 100-500 units/ml with Klebsiella 63; 4-20 units/ml against E. coli C 165; greater than 500 units/ml with E. coli A 261; 20-100 units/ml in [1]; less than 0.8 units/ml in the experiment with Staph. aureus 133. Further, the MIC against Psdm. aerug. Walter is greater than 500 units/ml.
On to `CN(C=O)C(=O)N[C@@H](C(=O)N[C@@H]1C(=O)N2[C@@H]1SC(C)(C)[C@@H]2C(=O)O)c1ccccc1` [Example 103, Sodium D(-)-β-(3-formyl-3-methyl-ureido)-benzylpenicillin], for which the MIC was 100-500 units/ml in the experiment with Proteus vulg. 1017; 4-20 units/ml in the experiment on E. coli C 165; greater than 500 units/ml with E. coli A 261; 20-100 units/ml in experiment [1]; less than 0.8 units/ml in the experiment on Staph. aureus 133.
